Activity calls are given as the source filed them.
Assays:
[1] = Late stage results from the probe development effort to identify inhibitors of the protein methylesterase PME-1: Luminescence-based counterscreen assay to identify cytotoxic compounds.; assay type: functional
[2] = target: Acylamino-acid-releasing enzyme (Homo sapiens, UniProt P13798); test: PME-1 inhibitor potency by in-gel ABPP, dose response, selectivity assay for PME-1 inhibitor project, cell lysate, mouse brain cytosol, FP-rhodamine, panel member APEH Assay Panel member description: Inhibition of N-acylaminoacyl-peptide hydrolase (APEH) (anti-target) (AID 2366)
[3] = target: T1, Type-1 angiotensin II receptor (Homo sapiens, UniProt P30556); test: AT1 receptor agonists, dose response, selectivity assay for APJ receptor agonist project, cell-based, uHTS hits (AID 488865); assay type: functional;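 also: beta-arrestin recruitment to AT1 measured by enzyme fragment complementation luminescence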
T1 sequence (P30556 whole entry): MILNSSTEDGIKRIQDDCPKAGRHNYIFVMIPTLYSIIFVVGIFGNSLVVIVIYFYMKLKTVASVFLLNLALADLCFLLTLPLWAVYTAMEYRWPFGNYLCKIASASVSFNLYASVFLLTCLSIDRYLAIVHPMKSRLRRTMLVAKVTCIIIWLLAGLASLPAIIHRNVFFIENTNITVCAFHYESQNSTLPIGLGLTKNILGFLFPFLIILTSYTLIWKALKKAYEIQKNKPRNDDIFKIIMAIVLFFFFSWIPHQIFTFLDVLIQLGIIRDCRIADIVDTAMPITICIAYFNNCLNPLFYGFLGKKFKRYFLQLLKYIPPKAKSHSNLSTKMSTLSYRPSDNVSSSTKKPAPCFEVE

Vero = test: cells; assay type: functional; details: Chlorocebus sabaeus
[4] = target: T2, Voltage-gated N-type calcium channel alpha-1B subunit/Amyloid beta A4 precursor protein-binding family A member 1 (Homo sapiens, UniProt Q00975+Q02410); assay type: protein assay
T2 sequence (Q00975 whole entry): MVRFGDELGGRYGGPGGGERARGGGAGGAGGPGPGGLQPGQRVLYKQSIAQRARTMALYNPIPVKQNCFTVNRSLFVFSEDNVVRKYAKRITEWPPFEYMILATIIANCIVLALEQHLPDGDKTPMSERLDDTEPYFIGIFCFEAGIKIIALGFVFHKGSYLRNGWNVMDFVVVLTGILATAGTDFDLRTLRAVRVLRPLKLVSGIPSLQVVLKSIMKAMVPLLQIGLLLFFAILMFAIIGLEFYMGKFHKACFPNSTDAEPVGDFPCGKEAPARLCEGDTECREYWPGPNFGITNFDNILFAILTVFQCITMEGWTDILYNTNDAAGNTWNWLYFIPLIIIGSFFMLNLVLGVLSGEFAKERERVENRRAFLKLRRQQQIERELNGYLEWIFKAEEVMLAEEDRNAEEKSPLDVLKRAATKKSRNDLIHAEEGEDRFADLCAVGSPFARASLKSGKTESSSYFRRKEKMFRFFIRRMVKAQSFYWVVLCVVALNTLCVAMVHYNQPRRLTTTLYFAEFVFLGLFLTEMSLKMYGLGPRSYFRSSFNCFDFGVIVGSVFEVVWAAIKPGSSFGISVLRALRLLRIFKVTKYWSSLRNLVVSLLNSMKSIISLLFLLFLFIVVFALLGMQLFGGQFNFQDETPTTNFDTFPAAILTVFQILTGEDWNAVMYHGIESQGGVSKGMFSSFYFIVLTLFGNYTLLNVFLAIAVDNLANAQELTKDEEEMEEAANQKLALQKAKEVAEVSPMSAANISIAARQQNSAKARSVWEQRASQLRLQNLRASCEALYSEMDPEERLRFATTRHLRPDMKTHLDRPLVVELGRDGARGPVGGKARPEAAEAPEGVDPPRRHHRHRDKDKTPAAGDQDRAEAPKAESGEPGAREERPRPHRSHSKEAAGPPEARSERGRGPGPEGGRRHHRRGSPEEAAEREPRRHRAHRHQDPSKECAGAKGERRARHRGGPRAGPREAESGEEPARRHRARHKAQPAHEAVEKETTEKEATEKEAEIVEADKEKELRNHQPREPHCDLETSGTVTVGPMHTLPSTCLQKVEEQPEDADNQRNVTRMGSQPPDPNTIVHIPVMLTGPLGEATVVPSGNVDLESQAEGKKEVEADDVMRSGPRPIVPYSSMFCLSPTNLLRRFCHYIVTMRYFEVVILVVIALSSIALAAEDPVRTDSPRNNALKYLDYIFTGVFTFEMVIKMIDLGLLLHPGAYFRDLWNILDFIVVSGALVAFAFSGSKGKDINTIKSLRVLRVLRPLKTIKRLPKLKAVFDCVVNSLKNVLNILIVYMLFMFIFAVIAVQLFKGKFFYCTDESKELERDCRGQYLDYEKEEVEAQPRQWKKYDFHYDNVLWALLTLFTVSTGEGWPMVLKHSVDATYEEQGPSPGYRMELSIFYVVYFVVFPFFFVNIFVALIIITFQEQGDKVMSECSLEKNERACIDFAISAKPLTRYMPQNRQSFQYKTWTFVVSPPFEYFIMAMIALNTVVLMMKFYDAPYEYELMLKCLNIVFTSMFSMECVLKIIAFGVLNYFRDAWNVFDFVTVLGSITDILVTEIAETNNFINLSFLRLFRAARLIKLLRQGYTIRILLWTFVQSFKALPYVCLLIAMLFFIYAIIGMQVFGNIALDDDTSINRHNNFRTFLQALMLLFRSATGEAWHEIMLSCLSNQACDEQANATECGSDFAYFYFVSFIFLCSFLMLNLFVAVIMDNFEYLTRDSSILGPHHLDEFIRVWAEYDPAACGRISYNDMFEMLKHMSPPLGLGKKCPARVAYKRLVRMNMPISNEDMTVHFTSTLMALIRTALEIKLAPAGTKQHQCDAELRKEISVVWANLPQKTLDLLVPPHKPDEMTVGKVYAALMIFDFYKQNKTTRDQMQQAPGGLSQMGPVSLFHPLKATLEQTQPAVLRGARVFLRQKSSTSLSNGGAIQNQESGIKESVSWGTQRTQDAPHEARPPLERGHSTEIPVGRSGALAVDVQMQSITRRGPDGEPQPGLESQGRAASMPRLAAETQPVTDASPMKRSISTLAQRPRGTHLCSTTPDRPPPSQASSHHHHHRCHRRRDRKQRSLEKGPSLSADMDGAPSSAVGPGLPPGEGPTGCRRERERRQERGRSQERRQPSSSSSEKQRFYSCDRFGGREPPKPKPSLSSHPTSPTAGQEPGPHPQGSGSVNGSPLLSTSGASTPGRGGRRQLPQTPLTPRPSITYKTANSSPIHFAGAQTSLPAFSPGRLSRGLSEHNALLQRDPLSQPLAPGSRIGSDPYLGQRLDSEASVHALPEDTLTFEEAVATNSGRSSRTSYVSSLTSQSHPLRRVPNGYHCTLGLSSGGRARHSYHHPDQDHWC
T2 sequence (Q02410 whole entry): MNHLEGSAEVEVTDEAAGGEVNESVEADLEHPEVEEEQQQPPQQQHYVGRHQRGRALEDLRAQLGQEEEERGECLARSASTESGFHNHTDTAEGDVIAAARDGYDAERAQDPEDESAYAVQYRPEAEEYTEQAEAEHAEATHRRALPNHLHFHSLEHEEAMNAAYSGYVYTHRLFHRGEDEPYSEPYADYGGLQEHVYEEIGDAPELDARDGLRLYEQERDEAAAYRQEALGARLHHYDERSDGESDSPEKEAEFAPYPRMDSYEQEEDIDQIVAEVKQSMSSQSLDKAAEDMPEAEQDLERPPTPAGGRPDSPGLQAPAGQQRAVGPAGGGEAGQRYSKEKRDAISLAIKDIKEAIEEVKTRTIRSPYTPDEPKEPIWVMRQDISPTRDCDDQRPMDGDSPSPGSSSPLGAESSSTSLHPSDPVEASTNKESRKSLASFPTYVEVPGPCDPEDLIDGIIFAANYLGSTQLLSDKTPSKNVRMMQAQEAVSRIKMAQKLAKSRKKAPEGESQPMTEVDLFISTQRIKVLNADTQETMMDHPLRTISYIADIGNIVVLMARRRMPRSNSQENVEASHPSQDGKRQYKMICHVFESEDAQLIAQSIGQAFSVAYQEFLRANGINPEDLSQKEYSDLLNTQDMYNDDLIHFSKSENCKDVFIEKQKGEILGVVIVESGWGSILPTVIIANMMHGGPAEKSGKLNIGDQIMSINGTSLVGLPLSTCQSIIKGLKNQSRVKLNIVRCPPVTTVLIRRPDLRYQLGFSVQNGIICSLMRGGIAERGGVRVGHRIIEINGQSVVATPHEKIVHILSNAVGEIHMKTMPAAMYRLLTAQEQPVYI

[5] = target: T2, Voltage-gated N-type calcium channel alpha-1B subunit/Amyloid beta A4 precursor protein-binding family A member 1; assay type: protein assay; remark: listed apart in the source
[6] = target: T3, G-protein coupled receptor 55 (Homo sapiens, UniProt Q9Y2T6); test: SAR analysis of selective Agonists of GPR55 using an Image-Based Assay - Set 2. [Related pubchem assays (depositor defined):AID1961, AID1965]; assay type: functional
T3 sequence (Q9Y2T6 whole entry): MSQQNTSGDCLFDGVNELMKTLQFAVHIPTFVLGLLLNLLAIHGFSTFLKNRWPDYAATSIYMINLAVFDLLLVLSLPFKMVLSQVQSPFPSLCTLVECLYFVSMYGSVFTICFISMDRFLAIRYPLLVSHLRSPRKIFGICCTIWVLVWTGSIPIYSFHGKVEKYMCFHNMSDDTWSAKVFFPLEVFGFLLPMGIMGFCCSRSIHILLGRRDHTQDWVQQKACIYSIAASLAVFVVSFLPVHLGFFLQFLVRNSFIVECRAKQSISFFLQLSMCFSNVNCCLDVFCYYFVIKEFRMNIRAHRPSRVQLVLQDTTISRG

[7] = target: T4, G-protein coupled receptor 35 (Homo sapiens, UniProt Q9HC97); test: SAR analysis of Antagonists of the GPR35 Receptor using an Image-Based Assay - Set 4. [Related pubchem assays (depositor defined):[…]]; assay type: functional
T4 sequence (Q9HC97 whole entry): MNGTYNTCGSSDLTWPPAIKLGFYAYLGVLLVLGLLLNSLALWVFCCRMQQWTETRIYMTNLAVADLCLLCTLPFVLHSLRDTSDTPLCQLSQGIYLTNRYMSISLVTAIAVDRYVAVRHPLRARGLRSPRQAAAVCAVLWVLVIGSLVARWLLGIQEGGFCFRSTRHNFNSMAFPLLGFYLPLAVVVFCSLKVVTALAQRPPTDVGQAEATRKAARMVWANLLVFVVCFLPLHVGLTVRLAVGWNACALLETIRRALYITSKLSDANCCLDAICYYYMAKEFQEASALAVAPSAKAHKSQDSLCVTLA

Cannabinoid receptor 2 [8] = target: T5, Cannabinoid receptor 2 (Homo sapiens, UniProt P34972); test: SAR analysis of antagonists of the Cannabinoid Receptor 2 using an Image-Based Assay - Set 2. [Related pubchem assays (depositor defined):AID1961, AID1965]; assay type: functional
T5 sequence (P34972 whole entry): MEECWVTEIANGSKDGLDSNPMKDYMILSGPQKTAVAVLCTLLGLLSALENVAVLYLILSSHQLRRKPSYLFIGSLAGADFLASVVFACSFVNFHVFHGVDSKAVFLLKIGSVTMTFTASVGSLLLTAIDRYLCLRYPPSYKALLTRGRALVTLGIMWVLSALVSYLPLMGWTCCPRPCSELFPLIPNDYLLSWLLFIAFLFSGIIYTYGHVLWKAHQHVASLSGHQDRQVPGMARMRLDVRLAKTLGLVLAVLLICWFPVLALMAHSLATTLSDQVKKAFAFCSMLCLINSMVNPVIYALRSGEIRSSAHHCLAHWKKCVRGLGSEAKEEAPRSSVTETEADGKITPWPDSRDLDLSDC

Cannabinoid receptor 1 [9] = target: T6, Cannabinoid receptor 1 (Homo sapiens, UniProt P21554); test: SAR analysis of agonists of the Cannabinoid Receptor 1 using an Image-Based Assay - Set 3. [Related pubchem assays (depositor defined):AID1961, AID1965]; assay type: functional
T6 sequence (P21554 whole entry): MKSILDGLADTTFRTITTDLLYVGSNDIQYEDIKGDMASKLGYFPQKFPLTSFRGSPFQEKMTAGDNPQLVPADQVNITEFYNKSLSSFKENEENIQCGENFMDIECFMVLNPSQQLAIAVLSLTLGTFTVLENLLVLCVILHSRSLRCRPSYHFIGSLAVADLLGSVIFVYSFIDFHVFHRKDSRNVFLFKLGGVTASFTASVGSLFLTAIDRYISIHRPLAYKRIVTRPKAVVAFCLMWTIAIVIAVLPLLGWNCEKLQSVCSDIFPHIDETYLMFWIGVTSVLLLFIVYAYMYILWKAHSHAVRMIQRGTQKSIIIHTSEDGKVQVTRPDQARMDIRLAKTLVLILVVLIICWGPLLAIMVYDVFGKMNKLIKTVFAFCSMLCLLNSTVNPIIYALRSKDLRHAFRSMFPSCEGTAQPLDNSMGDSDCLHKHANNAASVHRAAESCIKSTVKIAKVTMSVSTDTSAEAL

Cannabinoid receptor 1 [10] = target: T6, Cannabinoid receptor 1; test: SAR analysis of antagonists of the Cannabinoid Receptor 1 using an Image-Based Assay - Set 3. [Related pubchem assays (depositor defined):AID1961, AID1965]; assay type: functional
Cannabinoid receptor 2 [11] = target: T5, Cannabinoid receptor 2; test: SAR analysis of agonists of the Cannabinoid Receptor 2 using an Image-Based Assay - Set 2. [Related pubchem assays (depositor defined):AID1961, AID1965]; assay type: functional
[12] = target: T4, G-protein coupled receptor 35; test: SAR analysis of Agonists of the GPR35 Receptor using an Image-Based Assay - Set 3. [Related pubchem assays (depositor defined):AID1961, AID1965]; assay type: functional
[13] = target: T3, G-protein coupled receptor 55; test: GPR55 antagonists blocking LPI-driven arrestin recruitment, primary screen, imaging, U2OS, beta-arrestin-GFP, LPI agonist (AID 2013); assay type: functional;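 also: antagonist potency measured as reduced agonist-driven arrestin aggregation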
[14] = microbe, parasite or virus in culture; assay type: functional; details: Mycobacterium tuberculosis

N#C/C(=C\c1cccn1S(=O)(=O)c1cccc(C#N)c1)S(=O)(=O)c1ccc(F)cc1
CC50 [1]: 100 µM (active)
IC50 [2]: > 50 µM (inactive)

CCN(CC)CCNC(=O)c1cc(-c2cccnc2)nc2ccc(S(=O)(=O)N3CCC(C)CC3)cc12
EC50 [3]: > 100 µM (inactive)
CC50 (Vero): 9.06 µM (active)

O=C(O)Cc1sc(Nc2ccc(F)cc2)nc1-c1cccs1
IC50 [4]: 9.21 µM (active)
IC50 [5]: > 50 µM (inactive)

Cc1cc2cc3c(cc2n2c(SCC(=O)Nc4nc(-c5ccccc5)cs4)nnc12)OCCO3
EC50 [6]: 4.42 µM (active)
IC50 [7]: > 32 µM (inactive)
IC50 (Cannabinoid receptor 2 [8]): > 32 µM (inactive)
EC50 (Cannabinoid receptor 1 [9]): > 32 µM (inactive)
IC50 (Cannabinoid receptor 1 [10]): 12.7 µM (inactive)
EC50 (Cannabinoid receptor 2 [11]): > 32 µM (inactive)
EC50 [12]: > 32 µM (inactive)

CC(C)(C)c1nn(-c2ccccc2)c2[nH]c(=O)c(CNCc3ccc4c(c3)OCO4)cc12
IC50 [13]: 2.67 µM (active)
CC50 [14]: 27.2 µM (active)

— ChEMBL document CHEMBL1201862, “PubChem BioAssay data set” (2004)
